Where two headings read alike, the source gives them in different places.
Biological target: His-Tagged hOGA (human O-GlcNAcase) (Homo sapiens (Human), UniProt O60502)
Assay: Human O-GlcNAcase enzyme inhibition assay (Example B01)
Format: biochemical
Conditions: for IC50: OGA enzyme inhibition assay, activity range classes

His-Tagged hOGA (human O-GlcNAcase), sequence (O60502 whole entry): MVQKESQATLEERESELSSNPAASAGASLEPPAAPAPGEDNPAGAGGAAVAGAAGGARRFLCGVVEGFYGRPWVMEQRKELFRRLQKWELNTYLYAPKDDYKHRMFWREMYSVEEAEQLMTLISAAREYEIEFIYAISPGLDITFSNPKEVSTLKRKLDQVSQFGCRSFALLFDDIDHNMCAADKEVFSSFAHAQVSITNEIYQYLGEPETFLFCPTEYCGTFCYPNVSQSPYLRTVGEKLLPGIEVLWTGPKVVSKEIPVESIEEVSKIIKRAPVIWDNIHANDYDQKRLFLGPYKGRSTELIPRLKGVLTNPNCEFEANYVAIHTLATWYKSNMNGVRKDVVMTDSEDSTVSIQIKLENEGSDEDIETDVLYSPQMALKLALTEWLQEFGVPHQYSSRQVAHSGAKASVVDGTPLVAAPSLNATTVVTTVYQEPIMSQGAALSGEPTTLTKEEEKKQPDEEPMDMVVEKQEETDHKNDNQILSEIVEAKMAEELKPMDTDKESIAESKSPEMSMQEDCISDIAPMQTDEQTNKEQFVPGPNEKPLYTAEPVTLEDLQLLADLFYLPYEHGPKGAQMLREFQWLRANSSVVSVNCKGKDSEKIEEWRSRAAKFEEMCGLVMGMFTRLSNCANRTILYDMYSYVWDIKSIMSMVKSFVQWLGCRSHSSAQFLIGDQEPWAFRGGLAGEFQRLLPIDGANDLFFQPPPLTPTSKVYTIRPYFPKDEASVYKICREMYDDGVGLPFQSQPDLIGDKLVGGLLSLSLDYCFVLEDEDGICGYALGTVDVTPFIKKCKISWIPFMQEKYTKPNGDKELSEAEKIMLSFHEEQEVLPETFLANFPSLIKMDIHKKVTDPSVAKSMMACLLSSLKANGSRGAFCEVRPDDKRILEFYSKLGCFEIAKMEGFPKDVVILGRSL

Row | SMILES | OGA inhibitor activity, in words | IC50 (read-out: OGA IC50) | IC50 (OGA IC50 (M))
1 | C[C@@H](c1ccc2c(c1)OCCO2)N1CCN(c2ncc(C(=O)N(C)C)s2)CC1 (single isomer, unassigned) [Example 64] |  |  | < 5e-08 M
2 | C[C@@H](c1ccc2c(c1)OCCO2)N1CCN(c2ncc(C(=O)N(C)C)s2)CC1 (single isomer, unassigned) [Example 63] |  |  | 1e-06 to 1e-05 M
3 | C[C@@H](c1ccc2c(c1)OCO2)N1CCN(c2nc3c(s2)CNCC3)CC1 [Example 182, (S)-2-(4-(1-(benzofdlM,31dioxol-5-yl)ethyl)piperazin-1-yl)-4,5,6,7-tetrahydrothiazoloi5,4-c1pyridine] | very potent OGA inhibitors |  | 
4 | CNC(=O)c1cnc(N2CCN([C@@H](C)c3ccc4c(c3)OCO4)CC2)s1 (single isomer, unassigned) [Example 66] |  |  | < 5e-08 M
5 | Cc1ncc(N2CCN(C(C)c3ccc4c(c3)OCO4)CC2)s1 (racemic) [Example 37, 5-(4-(1-(Benzordiri,31dioxol-5-yl)ethyl)piperazin-1-yl)-2-methylthiazole] | very potent OGA inhibitors |  | 
6 | C[C@@H](c1ccc2c(c1)OCCO2)N1CCN(c2ncc(C(=O)N3CCN(C)CC3)s2)CC1 (single isomer, unassigned) [Example 74] |  |  | 1e-06 to 1e-05 M
7 | Cc1csc(N2CCN([C@H](C)c3ccc4c(c3)OCO4)CC2)n1 (single isomer, unassigned) [Example 15, (R)-2-(4-(1-(benzordiri,31dioxol-5-yl)ethyl)piperazin-1-yl)-4-methylthiazole or (S)-2-(4-(1-(benzordiri,31 dioxol-5-yl)ethyl)piperazin-1-yl)-4-methylthiazole] |  |  | 5e-08 to 2e-07 M
8 | CC(c1ccc2c(c1)OCO2)N1CCN(c2ncc(C(N)=O)s2)CC1 (racemic) [Example 48, 2-(4-(1-(Benzord1(1,3)dioxol-5-yl)ethyl)piperazin-1-yl)thiazole-5-carboxamide] | very potent OGA inhibitors |  | 
9 | C[C@@H](c1ccc2c(c1)OCCO2)N1CCN(c2ncccn2)CC1 (single isomer, unassigned) [Example 34, (R)-2-(4-(1-(2,3-Dihydrobenzorbiri,41dioxin-6-yl)ethyl)piperazin-1-yl)pyrimidine or (S)-2-(4-(1-(2,3-Dihydrobenzorbiri^1dioxin-6-yl)ethyl)piperazin-1-yl)pyrimidine] | very potent OGA inhibitors | < 5e-08 M | 
10 | CCNC(=O)c1cnc(N2CCN([C@@H](C)c3ccc4c(c3)OCO4)CC2)s1 (single isomer, unassigned) [Example 59] |  |  | 1e-06 to 1e-05 M
11 | CC(=O)Nc1cnc(N2CCN(C(C)c3ccc4cccnc4c3)CC2)nc1 (racemic) [Example 120, N-(2-(4-(1-(quinolin-7-yl)ethyl)piperazin-1-yl)pyrimidin-5-yl)acetamide] |  |  | 2e-07 to 1e-06 M
12 | CC(=O)Nc1cnc(N2CCN([C@H](C)c3ccc4c(c3)OCO4)CC2)nc1 (single isomer, unassigned) [Example 77] |  |  | 1e-06 to 1e-05 M
13 | C[C@H](c1ccc2nccnc2c1)N1CCN(c2ncc(C(F)(F)F)cn2)CC1 (single isomer, unassigned) [Example 104, (S)-6-(1-(4-(5-(trifluoromethyl)pyrimidin-2-yl)piperazin-1-yl)ethyl)quinoxaline or (R)-6-(1-(4-(5-(trifluoromethyl)pyrimidin-2-yl)piperazin-1-yl)ethyl)quinoxaline] |  |  | 5e-08 to 2e-07 M
14 | CCNC(=O)c1cnc(N2CCN([C@@H](C)c3ccc4c(c3)OCCO4)CC2)s1 (single isomer, unassigned) [Example 62, (S)-2-(4-(1-(2,3-dihydrobenzorbiri,41dioxin-6-yl)ethyl)piperazin-1-yl)-N-ethylthiazole-5-carboxamide or (R)-2-(4-(1-(2,3-dihydrobenzorblH,41dioxin-6-yl)ethyl)piperazin-1-yl)-N-ethylthiazole-5-carboxamide] |  |  | 5e-08 to 2e-07 M
15 | CNC(=O)c1cnc(N2CCN([C@@H](C)c3ccc4c(c3)OCO4)CC2)s1 (single isomer, unassigned) [Example 65] |  |  | 1e-06 to 1e-05 M
16 | C[C@@H](c1ccc2c(c1)OCCO2)N1CCN(c2ncc(C(=O)N3CCN(C)CC3)s2)CC1 (single isomer, unassigned) [Example 75] | very potent OGA inhibitors |  | < 5e-08 M
17 | CCNC(=O)c1cnc(N2CCN([C@@H](C)c3ccc4c(c3)OCO4)CC2)s1 (single isomer, unassigned) [Example 60] |  |  | 5e-08 to 2e-07 M

The next lines start with results.

Row | OGA inhibitor activity, in words | IC50 (read-out: OGA IC50) | SMILES | IC50 (OGA IC50 (M))
18 | very potent OGA inhibitors |  | CC(=O)Nc1nnc(N2CCN(C(C)c3ccc4c(c3)OCC4)CC2)s1 (racemic) [Example 128] | 
19 | very potent OGA inhibitors |  | CC(c1ccc2c(c1)OCO2)N1CCN(c2ncc(CO)cn2)CC1 (racemic) [Example 52, (2-(4-(1-(benzordiri,31 dioxol-5-yl)ethyl)piperazin-1-yl)pyrimidin-5-yl)methanol] | 
20 |  | < 5e-08 M | CC(=O)NCc1csc(N2CCN(C(C)c3ccc4c(c3)OCO4)CC2)n1 (stereo not drawn) [Example 85, N-((2-(4-(1-(benzordiri,31dioxol-5-yl)ethyl)piperazin-1-yl)thiazol-4-yl)methyl)acetamide] | 
21 | very potent OGA inhibitors |  | C[C@@H](c1ccc2c(c1)OCO2)N1CCN(c2ncc(C(=O)N(C)C)cn2)CC1 [Example 137] | 
22 | very potent OGA inhibitors | < 5e-08 M | CNC(=O)c1csc(N2CCN([C@@H](C)c3ccc4c(c3)OCO4)CC2)n1 (single isomer, unassigned) [Example 56, (/?)-2-(4-(1-(Benzordiri,31dioxol-5-yl)ethyl)piperazin-1-yl)-N-methylthiazole^4-carboxamide or ^S)-2-(4-(1-(benzordiri,31dioxol-5-yl)ethyl)piperazin-1-yl)-N-methylthiazole^4-carboxamide] | 
23 | very potent OGA inhibitors |  | CC(O)c1cnc(N2CCN([C@@H](C)c3ccc4c(c3)OCO4)CC2)nc1 (stereo in doubt) [Example 168, 1-(2-(4-((S)-1-(benzo[dl]1,31dioxol-5-yl)ethyl)piperazin-1-yl)pyrimidin-5-yl)ethan-1-ol] | 
24 | very potent OGA inhibitors |  | C[C@@H](c1ccc2c(c1)OCO2)N1CCN(c2ncc(C3(O)CCCC3)cn2)CC1 [Example 181, (S)-1-(2-(4-(1-(benzofdlH,31dioxol-5-yl)ethyl)piperazin-1-yl)pyrimidin-5-yl)cyclopentan-1-ol] | 
25 |  | < 5e-08 M | C[C@H](O)c1cnc(N2CCN([C@@H](C)c3ccc4c(c3)OCO4)CC2)nc1 (single isomer, unassigned) [Example 198] | 
26 |  | 5e-08 to 2e-07 M | CC(c1ccc2c(c1)OCO2)N1CCN(c2nc(CN)cs2)CC1 (stereo not drawn) [Example 84, (2-(4-(1-(benzordin,31 dioxol-5-yl)ethyl)piperazin-1-yl)thiazol-4-yl)methanamine] | 
27 |  | < 5e-08 M | C[C@@H](c1ccc2c(c1)OCCO2)N1CCN(c2ncc(C(=O)N3CCC(O)CC3)s2)CC1 (single isomer, unassigned) [Example 81, (/?)-(2-(4-(1-(2,3-Dihydrobenzorbin,41dioxin-6-yl)ethyl)piperazin-1-yl)thiazol-5-yl)(4-hydroxypiperidin-1-yl)methanone or (S)-(2-(4-(1-(2,3-Dihydrobenzorbin,41dioxin-6-yl)ethyl)piperazin-1-yl)thiazol-5-yl)(4-hydroxypiperidin-1-yl)methanone] | 
28 |  | < 5e-08 M | C[C@@H](c1ccc2c(c1)OCO2)N1CCN(c2nc3c(s2)CN(C)CC3)CC1 [Example 194, (S)-2-(4-(1-(benzordiri,31dioxol-5-yl)ethyl)piperazin-1-yl)-5-methyl-4,5,6,7-tetrahydrothiazoloi5,4-c1pyridine] | 
29 | very potent OGA inhibitors |  | CC(=O)Nc1cnc(N2CCN(C(C)c3ccc4scnc4c3)CC2)nc1 (racemic) [Example 116, N-(2-(4-(1-(benzord1thiazol-5-yl)ethyl)piperazin-1-yl)pyrimidin-5-yl)acetamide] | 
30 | very potent OGA inhibitors |  | C[C@@H](c1ccc2c(c1)OCO2)N1CCN(c2ncc(F)cn2)CC1 [Example 173, (S)-2-(4-(1-(benzofdin,31dioxol-5-yl)ethyl)piperazin-1-yl)-5-fluoropyrimidine] | 
31 | very potent OGA inhibitors |  | CNC(=O)c1cnc(N2CCN([C@@H](C)c3ccc4c(c3)OCO4)CC2)nc1 [Example 134, (S) 2-(4-(1-(benzordiri,31dioxol-5-yl)ethyl)piperazin-1-yl)-N-methylpyrimidine-5-carboxamide] | 
32 |  | < 5e-08 M | CNC(=O)c1csc(N2CCN([C@@H](C)c3ccc4c(c3)OCCO4)CC2)n1 (single isomer, unassigned) [Example 57, (R)-2-(4-(1-(2,3-dihydrobenzorbin,41dioxin-6-yl)ethyl)piperazin-1-yl)-N-methylthiazole-4-carboxamide or (S)-2-(4-(1-(2,3-dihydrobenzorbiri,41dioxin-6-yl)ethyl)piperazin-1-yl)-N-methylthiazole-4-carboxamide] | 
33 |  | < 5e-08 M | C[C@@H](c1ccc2c(c1)OCCO2)N1CCN(c2ncc(C(=O)N(C)CCN(C)C)s2)CC1 (single isomer, unassigned) [Example 71, (R)-2-(4-(1-(2,3-Dihydrobenzorb1H,41dioxin-6-yl)ethyl)piperazin-1-yl)-N-(2-(dimethylamino)ethyl)-N-methylthiazole-5-carboxamide or (S)-2-(4-(1-(2,3-dihydrobenzorbiri^1dioxin-6-yl)ethyl)piperazin-1-yl)-N-(2-(dimethylamino)ethyl)-N-methylthiazole-5-carboxamide] | 
34 | very potent OGA inhibitors |  | CC(=O)Nc1cnc(N2CCN(C(C)c3ccc4c(c3)OCO4)CC2)nc1 (racemic) [Example 72, N-(2-(4-(1-(benzordlH,31dioxol-5-yl)ethyl)piperazin-1-yl)pyrimidin-5-yl)acetamide] | 
35 | very potent OGA inhibitors |  | C[C@@H](c1ccc2c(c1)OCO2)N1CCN(c2nnc(N)s2)CC1 [Example 132, (S)-5-(4-(1-(benzordiri,31dioxol-5-yl)ethyl)piperazin-1-yl)-1,3,4-thiadiazol-2-amine] | 
36 | very potent OGA inhibitors |  | CC(=O)Nc1cnc(N2CCN(C(C)c3ccc4c(c3)OCC4)CC2)nc1 (racemic) [Example 129] | 
